Source: PubChem BioAssay AID248 (DTP/NCI, 2004)
Where “and” joins values, the source holds several entries; their conditions need not be identical. Identical values can stand only once. Toxic doses and inconclusive results are not listed. Rule as the data show it: active = T/C of 150% or more; inactive = T/C below 125%.

Test system: L1210 leukemia ip in BDF1 mice, survival T/C
Test: NCI In Vivo Anticancer Drug Screen. Data for tumor model L1210 Leukemia (intraperitoneal) in B6D2F1 (BDF1) mice
Conditions: endpoint: mean survival time, higher = longer survival
How it was run: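 Transplantable tumor model; survival measured in treated vs vehicle control mice. Value = treated/control.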

[1] = dose: 100.0 mg/kg/injection, schedule: Q01DX001 (ip), vehicle: carboxymethylcellulose (CMC)
[2] = dose: 200.0 mg/kg/injection, schedule: Q01DX001 (ip), vehicle: carboxymethylcellulose (CMC)
[3] = dose: 400.0 mg/kg/injection, schedule: Q01DX001 (ip), vehicle: carboxymethylcellulose (CMC)
[4] = dose: 100.0 mg/kg/injection, schedule: Q01DX001 (ip), vehicle: saline
[5] = dose: 200.0 mg/kg/injection, schedule: Q01DX001 (ip), vehicle: saline
[6] = dose: 400.0 mg/kg/injection, schedule: Q01DX001 (ip), vehicle: saline
[7] = dose: 100.0 mg/kg/injection, schedule: Q01DX009 (ip), vehicle: Klucel (hydroxypropylcellulose) (HPC)
[8] = dose: 200.0 mg/kg/injection, schedule: Q01DX009 (ip), vehicle: Klucel (hydroxypropylcellulose) (HPC)
[9] = dose: 400.0 mg/kg/injection, schedule: Q01DX009 (ip), vehicle: Klucel (hydroxypropylcellulose) (HPC)
[10] = dose: 25.0 mg/kg/injection, schedule: Q01DX009 (ip), vehicle: saline with Tween-80
[11] = dose: 25.0 mg/kg/injection, schedule: Q04DX003 (ip), vehicle: saline with Tween-80
[12] = dose: 50.0 mg/kg/injection, schedule: Q01DX009 (ip), vehicle: saline with Tween-80
[13] = dose: 50.0 mg/kg/injection, schedule: Q04DX003 (ip), vehicle: saline with Tween-80
[14] = dose: 100.0 mg/kg/injection, schedule: Q01DX009 (ip), vehicle: saline with Tween-80
[15] = dose: 100.0 mg/kg/injection, schedule: Q04DX003 (ip), vehicle: saline with Tween-80
[16] = dose: 400.0 mg/kg/injection, schedule: Q04DX003 (ip), vehicle: saline with Tween-80
[17] = dose: 200.0 mg/kg/injection, schedule: Q01DX009 (ip), vehicle: saline with Tween-80
[18] = dose: 400.0 mg/kg/injection, schedule: Q01DX009 (ip), vehicle: saline with Tween-80
[19] = dose: 50.0 mg/kg/injection, schedule: Q01DX009 (ip), vehicle: Klucel (hydroxypropylcellulose) (HPC)
[20] = dose: 100.0 mg/kg/injection, schedule: Q04DX003 (ip), vehicle: Klucel (hydroxypropylcellulose) (HPC)
[21] = dose: 200.0 mg/kg/injection, schedule: Q04DX003 (ip), vehicle: Klucel (hydroxypropylcellulose) (HPC)
[22] = dose: 200.0 mg/kg/injection, schedule: Q04DX003 (ip), vehicle: saline with Tween-80
[23] = dose: 50.0 mg/kg/injection, schedule: Q01DX001 (ip), vehicle: saline

Measured: T/C

Nc1nc(N)c(N=Nc2ccc(S(=O)(=O)Nc3nccs3)cc2)cc1N=Nc1ccccc1
inactive: [1] 94 % of control | [2] 92 % of control | [3] 105 % of control

N#CCc1ccc(N=Nc2c(N)nc(N)[nH]c2=O)cc1
inactive: [4] 98 % of control | [5] 96 % of control | [6] 96 % of control

CO/N=C(/c1ccccc1)c1cccc[n+]1C
inactive: dose: 18.8 mg/kg/injection, schedule: Q04DX003 (ip), vehicle: saline 100 % of control | dose: 37.5 mg/kg/injection, schedule: Q04DX003 (ip), vehicle: saline 103 % of control

Cc1ccc(NC(=O)C(Cl)(Cl)Cl)cc1Cl
inactive: [7] 112 % of control | [8] 106 % of control | [9] 109 % of control

CN(CCS)Cc1ccccc1
inactive: [10] 97 % of control | [11] 95 % of control | [12] 99 % of control | [13] 106 % of control | [14] 103 % of control | [15] 97 % of control and 102 % of control

NC(=O)c1c(Br)n(C2OC(CO)C(O)C2O)c2ncnc(N)c12 (configuration not stated)
active: [16] 150 % of control
inactive: [13] 102 % of control | [4] 121 % of control | dose: 178.0 mg/kg/injection, schedule: Q01DX001 (ip), vehicle: saline 111 % of control | dose: 267.0 mg/kg/injection, schedule: Q01DX001 (ip), vehicle: saline 109 % of control | [6] 120 % of control

Nc1cnc(N)nc1
inactive: dose: 75.0 mg/kg/injection, schedule: Q01DX Z (ip), vehicle: saline 103 % of control | dose: 150.0 mg/kg/injection, schedule: Q01DX Z (ip), vehicle: saline 111 % of control

CCOC(=O)C(C(=N)C#N)C(C)=O (configuration not stated)
inactive: dose: 6.25 mg/kg/injection, schedule: Q04DX003 (ip), vehicle: saline with Tween-80 98 % of control | dose: 12.5 mg/kg/injection, schedule: Q04DX003 (ip), vehicle: saline with Tween-80 98 % of control | [11] 97 % of control | [13] 88 % of control | [15] 103 % of control

CC(=O)Oc1ccc2c3c(cccc13)CC2
inactive: [14] 97 % of control | [17] 96 % of control | [18] 92 % of control

CC1=N/C(=C/c2ccccc2Cl)C(=O)O1
inactive: [19] 93 % of control | [7] 90 % of control | [20] 95 % of control | [8] 93 % of control | [21] 98 % of control

O=S(=O)(/N=C1C=C/C(=N\S(=O)(=O)c2ccccc2)c2ccccc2\1)c1ccccc1
inactive: [15] 88 % of control | [22] 90 % of control | [16] 93 % of control

COc1ccccc1NC(=O)Oc1ccc(-c2ccccc2)cc1Br
inactive: [7] 92 % of control | [20] 97 % of control | [8] 97 % of control | [21] 95 % of control | [9] 101 % of control | dose: 400.0 mg/kg/injection, schedule: Q04DX003 (ip), vehicle: Klucel (hydroxypropylcellulose) (HPC) 93 % of control

O=C1OC(c2ccccc2)CC1N1CCCCC1 (configuration not stated)
inactive: dose: 100.0 mg/kg/injection, schedule: Q01DX001 (ip), vehicle: saline sonified 109 % of control | dose: 200.0 mg/kg/injection, schedule: Q01DX001 (ip), vehicle: saline sonified 105 % of control

C#CC1(O)CC[C@H]2[C@@H]3CCC4=CCCC[C@@H]4[C@H]3CC[C@@]21C (some centres not stated)
inactive: [1] 103 % of control | [2] 96 % of control | [3] 91 % of control

COc1ccc(C(=O)c2ccc(Cl)s2)cc1
inactive: dose: 100.0 mg/kg/injection, schedule: Q04DX003 (ip), vehicle: gum acacia 96 % of control | dose: 200.0 mg/kg/injection, schedule: Q04DX003 (ip), vehicle: gum acacia 91 % of control | dose: 400.0 mg/kg/injection, schedule: Q04DX003 (ip), vehicle: gum acacia 89 % of control

c1ccc(C(c2ccccc2)[Si](c2ccccc2)(c2ccccc2)C(c2ccccc2)c2ccccc2)cc1
inactive: dose: 25.6 mg/kg/injection, schedule: Q04DX002 (ip), vehicle: saline with Tween-80 107 % of control | [19] 90 % of control | dose: 64.0 mg/kg/injection, schedule: Q04DX002 (ip), vehicle: saline with Tween-80 100 % of control | [7] 86 % of control | [15] 94 % of control | dose: 160.0 mg/kg/injection, schedule: Q04DX002 (ip), vehicle: saline with Tween-80 100 % of control | [8] 88 % of control | [22] 96 % of control | dose: 400.0 mg/kg/injection, schedule: Q04DX002 (ip), vehicle: saline with Tween-80 110 % of control | [16] 91 % of control

O=S(=O)(Cl)c1ccc2cc3ccccc3cc2c1
inactive: [12] 98 % of control | [14] 96 % of control | [17] 102 % of control

CCCCOB(OCCCC)c1ccc(B(OCCCC)OCCCC)cc1
inactive: [4] 97 % of control | [5] 101 % of control | [6] 89 % of control

CCOC(=O)Cc1cnc(SC)nc1Cl
inactive: [12] 98 % of control | [14] 91 % of control | [15] 92 % of control | [17] 88 % of control | [22] 92 % of control

O=c1[nH]c(=O)n(C2OC(CO)C(O)C2O)c2ccccc12 (configuration not stated)
inactive: [4] 102 % of control | [5] 93 % of control | [6] 93 % of control

CCCCCCCCCCCCN=c1nc(N)ccn1C1OC(CO)C(O)C1O (configuration not stated)
inactive: dose: 12.5 mg/kg/injection, schedule: Q01DX005 (ip), vehicle: saline 110 % of control | dose: 25.0 mg/kg/injection, schedule: Q01DX005 (ip), vehicle: saline 116 % of control

N#CC1(O)C(Cl)(Cl)CCCC1(Cl)Cl
inactive: dose: 6.25 mg/kg/injection, schedule: Q01DX009 (ip), vehicle: saline with Tween-80 91 % of control | dose: 12.5 mg/kg/injection, schedule: Q01DX009 (ip), vehicle: saline with Tween-80 97 % of control | [10] 94 % of control

O=C(Nc1ccc(Cl)c(Cl)c1)c1ccc(Cl)c(Cl)c1
inactive: dose: 50.0 mg/kg/injection, schedule: Q04DX002 (ip), vehicle: saline with Tween-80 94 % of control | dose: 100.0 mg/kg/injection, schedule: Q04DX002 (ip), vehicle: saline with Tween-80 91 % of control | dose: 200.0 mg/kg/injection, schedule: Q04DX002 (ip), vehicle: saline with Tween-80 91 % of control

CN(C)CCC(=O)c1ccc(Cl)cc1
inactive: [23] 101 % of control | dose: 50.0 mg/kg/injection, schedule: Q01DX009 (ip), vehicle: saline 95 % of control and 117 % of control | [4] 101 % of control | dose: 100.0 mg/kg/injection, schedule: Q01DX009 (ip), vehicle: saline 99 % of control and 103 % of control | dose: 100.0 mg/kg/injection, schedule: Q04DX002 (ip), vehicle: saline 95 % of control and 103 % of control | [5] 101 % of control | dose: 200.0 mg/kg/injection, schedule: Q04DX002 (ip), vehicle: saline 93 % of control and 90 % of control

Cc1ccc(S(=O)(=O)OC2CS(=O)(=O)C2)cc1
inactive: [14] 100 % of control | [15] 105 % of control | [17] 95 % of control | [22] 100 % of control | [18] 105 % of control | [16] 97 % of control

[O-]c1c[n+](-c2ccc3ccccc3c2)no1
inactive: dose: 100.0 mg/kg/injection, schedule: Q04DX003 (ip), vehicle: carboxymethylcellulose (CMC) 114 % of control | dose: 200.0 mg/kg/injection, schedule: Q04DX003 (ip), vehicle: carboxymethylcellulose (CMC) 110 % of control | dose: 400.0 mg/kg/injection, schedule: Q04DX003 (ip), vehicle: carboxymethylcellulose (CMC) 104 % of control

CCCC/C(=N\OC(=O)N(C)C)c1ccccc1
inactive: [4] 103 % of control | [5] 98 % of control | [6] 98 % of control

Cc1cc(N=Nc2c(C)ccc3ncccc23)ccc1N
inactive: dose: 3.12 mg/kg/injection, schedule: Q01DX001 (ip), vehicle: DMSO 90 % of control | dose: 6.25 mg/kg/injection, schedule: Q01DX001 (ip), vehicle: DMSO 98 % of control | dose: 12.5 mg/kg/injection, schedule: Q01DX001 (ip), vehicle: DMSO 98 % of control

CCN(CC)Cc1ccc(C2=NCCO2)cc1
inactive: [23] 91 % of control | [4] 94 % of control | [5] 98 % of control
